Measured values taken from PubChem BioAssay (NCI).
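Cells were grown in 96-well plates and exposed to each compound for 48 hours at five concentrations; endpoints were interpolated linearly between bracketing concentrations, or set to the highest concentration if not reached. At the GI50, growth is halved. TGI is the concentration that stops growth completely.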

Key:
Assay in all cases: NCI-60 cell line screen, 48 h
EKVX NSCLC = test system: EKVX NSCLC
K-562 leukemia = test system: K-562 leukemia
HOP-62 NSCLC = test system: HOP-62 NSCLC
OVCAR-8 ovarian = test system: OVCAR-8 ovarian
HCT-15 colon = test system: HCT-15 colon
SNB-19 CNS = test system: SNB-19 CNS
SK-OV-3 ovarian = test system: SK-OV-3 ovarian
SF-268 CNS = test system: SF-268 CNS
HT29 colon = test system: HT29 colon
UO-31 renal = test system: UO-31 renal

Compound | TGI (EKVX NSCLC) | TGI (K-562 leukemia) | TGI (HOP-62 NSCLC) | TGI (OVCAR-8 ovarian) | TGI (HCT-15 colon) | TGI (SNB-19 CNS) | TGI (SK-OV-3 ovarian) | TGI (SF-268 CNS) | TGI (HT29 colon) | TGI (UO-31 renal) | GI50 (EKVX NSCLC) | GI50 (K-562 leukemia) | GI50 (HOP-62 NSCLC) | GI50 (OVCAR-8 ovarian) | GI50 (HCT-15 colon) | GI50 (SNB-19 CNS) | GI50 (SK-OV-3 ovarian) | GI50 (SF-268 CNS) | GI50 (HT29 colon) | GI50 (UO-31 renal)
O=C(O)CNS(=O)(=O)c1ccc(NCc2ccccc2)cc1 | > 100 µM | > 100 µM | > 100 µM | > 100 µM | > 100 µM | > 100 µM | > 100 µM | > 100 µM | > 100 µM | > 100 µM | – | – | – | – | – | – | – | – | – | –
N#Cc1cc([N+](=O)[O-])ccc1NC(=O)C(=O)Nc1n[nH]c(N)n1 | > 100 µM | > 100 µM | > 100 µM | > 100 µM | > 100 µM | > 100 µM | > 100 µM | > 100 µM | > 100 µM | > 100 µM | – | – | – | – | – | – | – | – | – | –
COC(=O)[C@]12CC[C@@H](C)[C@H](C)[C@@H]1C1=CC[C@@H]3[C@@]4(C)C/C(=N\O)[C@H](O)[C@@]5(C)COC(=C45)C[C@@]3(C)[C@]1(C)CC2 | 24.3 µM | 14.9 µM | 26.3 µM | 26.6 µM | 17.7 µM | 31.5 µM | 30.5 µM | 30 µM | 9.31 µM | 29.2 µM | 10.3 µM | 3.77 µM | 12.3 µM | 10 µM | 5.47 µM | 10.5 µM | 16.6 µM | 12.6 µM | 2.88 µM | 12.3 µM
COc1cc(C2NC(=O)c3ccccc3N2)ccc1OCCCCCOc1c(OC)cc(C2=NOC(c3cc(OC)c(OC)c(OC)c3)C2)cc1OC (stereo not given) | > 100 µM | > 100 µM | 61.3 µM | > 100 µM | > 100 µM | > 88.8 µM | > 100 µM | > 100 µM | > 100 µM | > 100 µM | 0.365 µM | 0.431 µM | 17.3 µM | 25.2 µM | 3.34 µM | 16.6 µM | 31.1 µM | 20.8 µM | > 100 µM | 15.1 µM
O=C1Nc2c(C(F)(F)F)cccc2[C@]1(c1ccc(O)cc1)c1ccc(OC(F)(F)F)cc1 | 21.6 µM | > 100 µM | 39.9 µM | 21.8 µM | 23.3 µM | 27.2 µM | 36.5 µM | 24 µM | 28.9 µM | 20 µM | 8.09 µM | 8.57 µM | 15.7 µM | 5.29 µM | 9.43 µM | 14.1 µM | 17.3 µM | 8.73 µM | 10.3 µM | 6.45 µM
